According to US10301304B2, “Selective inhibitor of phosphatidylinositol 3-kinase-gamma” (VERTEX PHARMACEUTICALS INCORPORATED, priority 2013, dated 2019):

Key:
CYP3A4 = CYP3A4 (Homo sapiens, UniProt P08684); assay: Inhibition of CYP Enzymes in Human Liver Microsomes; assay type: in vitro ADME; parameters: evaluated in human liver microsomes using the IC50 shift assay; from tissue; host or cells: human liver microsomes
Description: Inhibition assays were conducted with selective CYP probes for each CYP enzyme at specific concentrations of substrate (close to its dissociation constant (Km) value). Compound 1 was a moderate inhibitor of CYP 1A2, 2B6 and 2C8; […]

[1] = Permeability in Caco-2 cell line; assay type: in vitro ADME; conditions: human
Description: (§1) The permeability of Compound 1 was evaluated using both Caco-2 and MadinDarby canine kidney (MDCK) wild-type cell lines. Cells were exposed to drug in buffer on the apical side (measuring permeability in the A-to-B direction) or basolateral side (measuring permeability in the B-to-A direction) and incubated at 37° C. for one hour. Permeability was high in the A-to-B direction in both the MDCK and Caco-2 cell lines (33 and 18×10^−6 cm/sec, respectively).

Caco-2 = assay: Permeability in Caco-2 cell line; assay type: in vitro ADME; conditions: Caco-2, 5 μM, A > B
Description: as §1

PI3K-α = PI3K-α (Homo sapiens, UniProt P42336); assay: PI3K Inhibition Assay; assay type: biochemical
Description: (§2) Using a Biomek FX from Beckman Coulter, 1.5 μL of each of ten 2.5-fold serial dilutions of the compound of the invention in 100% DMSO was added to an individual well (hereafter, “test well”) in a 96 well polystyrene plate [Corning, Costar Item No. 3697]. One test well also contained 1.5 μL of DMSO with no compound. […] Using a Titertek Multidrop, 50 μL of Reaction Mix [100 mM HEPES pH 7.5, 50 mM NaCl, 10 mM DTT, 0.2 mg/mL BSA, 60 μM phosphatidylinositol(4,5)-bisphosphate diC16 (PI(4,5)P2; Avanti Polar Lipids, Cat. No. 840046P) and PI3K isoform of interest (see Table 1 for isoform concentrations)] was added to each well. To initiate the reaction, 50 μL of ATP Mix [20 mM MgCl2, 6 μM ATP (100 μCi/μmole ^33P-ATP was added to each well, followed by incubating the wells for 30 min. at 25° C. Final concentrations in each well were 50 mM HEPES 7.5, 10 mM MgCl2, 25 mM NaCl, 5 mM DTT, 0.1 mg/mL BSA, 30 μM PI(4,5)P2, 3 μM ATP, and the PI3K isoform of interest (see Table 2). Final compound concentrations in each well ranged from 10 μM to 1 nM.
(§3) After incubation, the reactions in each well were quenched by addition of 50 μL of stop solution [30% TCA/Water, 10 mM ATP]. Each quenched reaction mixture was then transferred to a 96 well glass fiber filter plate [Corning, Costar Item No. 3511]. The plate was vacuum-filtered and washed three times with 150 μL of 5% TCA/water in a modified Bio-Tek Instruments ELX-405 Auto Plate Washer. 50 μL of scintillation fluid was added to each well and the plate read on a Perkin-Elmer TopCount™ NXT liquid scintillation counter to obtain ^33P-counts representing inhibition values.
(§4) The value for the background well was subtracted from the value obtained for each test well and the data were fit to the competitive tight binding Ki equation described by Morrison and Stone, Comments Mol. Cell Biophys. 2: 347-368, 1985. […] In addition, isoform selectivity was also seen as Compound 1 was tested against PI3K-alpha, PI3K-beta, and PI3K-delta isoforms and was determined to have a selectivity of greater than 15 fold for PI3K-gamma as shown in Table 2.

PI3K-β = PI3K-β (Homo sapiens, UniProt P42338); assay: PI3K Inhibition Assay; assay type: biochemical
Description: as §2, §3, §4

PI3K-δ = PI3K-δ (Homo sapiens, UniProt O00329); assay: PI3K Inhibition Assay; assay type: biochemical
Description: as §2, §3, §4

PI3K-γ = PI3K-γ (Homo sapiens, UniProt P48736); assay: PI3K Inhibition Assay; assay type: biochemical
Description: as §2, §3, §4

human P-gp (MDR) = molecular target: T1, human P-gp (MDR) (Homo sapiens, UniProt P08183); assay: Efflux in MDCK-MDR1 cell line; assay type: in vitro ADME; conditions: MDCK overexpressing human P-gp, in words
T1 construct: expressed in transfected cells; host or cells: MDCK (Madin-Darby canine kidney) cells, MDCK-MDR1
Description: as §1
An assessment of whether Compound 1 is a substrate of efflux transporters was conducted by using the MDCK cell line that is overexpressed with human P-gp (MDR).

[2] = Oral pharmacokinetics / bioavailability; assay type: in vivo; conditions: single oral; for AUC / AUC(0-inf) / Cmax / MRT / Tmax / half-life: in vivo
Description: The bioavailability in monkey (greater than 100%) may be explained by the tenfold difference between the IV and oral doses. Compound 1 was rapidly absorbed in all species, with maximum systemic concentration observed within approximately one to three hours of dosing.

[3] = Intravenous bolus pharmacokinetics; assay type: in vivo, Rat; conditions: for AUC: rat, iv, 0.5 mg/kg
Description: Following intravenous administration of a single bolus dose, Compound 1 had low systemic clearance and a long half-life in all species tested. […] The volume of distribution was greater than the total body water, indicating distribution of Compound 1 to tissues.

[4] = Dog, 3 mg/kg nominal, spray-dried dispersion
[5] = Monkey, 5 mg/kg nominal, spray-dried dispersion
[6] = Mouse, 1 mg/kg nominal, 0.2% MC/1% SLS
[7] = Rat, single IV bolus, 0.5 mg/kg nominal
[8] = plasma, Rat, single IV bolus, 0.5 mg/kg nominal

Sequence of CYP3A4 (P08684 whole entry): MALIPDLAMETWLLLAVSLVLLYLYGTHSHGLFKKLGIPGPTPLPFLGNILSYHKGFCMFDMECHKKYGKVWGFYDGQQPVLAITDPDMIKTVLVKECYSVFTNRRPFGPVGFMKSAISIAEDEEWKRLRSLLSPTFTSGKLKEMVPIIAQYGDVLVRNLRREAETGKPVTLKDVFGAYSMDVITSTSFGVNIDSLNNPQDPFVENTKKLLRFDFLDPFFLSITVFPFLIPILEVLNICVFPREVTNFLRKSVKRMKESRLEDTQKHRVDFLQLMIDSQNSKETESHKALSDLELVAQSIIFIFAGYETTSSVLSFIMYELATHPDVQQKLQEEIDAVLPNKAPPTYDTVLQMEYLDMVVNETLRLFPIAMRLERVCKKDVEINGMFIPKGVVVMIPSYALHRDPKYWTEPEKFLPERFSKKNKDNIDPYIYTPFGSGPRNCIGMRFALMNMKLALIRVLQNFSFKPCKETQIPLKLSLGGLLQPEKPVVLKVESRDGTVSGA
Sequence of PI3K-γ (P48736 whole entry, species assumed): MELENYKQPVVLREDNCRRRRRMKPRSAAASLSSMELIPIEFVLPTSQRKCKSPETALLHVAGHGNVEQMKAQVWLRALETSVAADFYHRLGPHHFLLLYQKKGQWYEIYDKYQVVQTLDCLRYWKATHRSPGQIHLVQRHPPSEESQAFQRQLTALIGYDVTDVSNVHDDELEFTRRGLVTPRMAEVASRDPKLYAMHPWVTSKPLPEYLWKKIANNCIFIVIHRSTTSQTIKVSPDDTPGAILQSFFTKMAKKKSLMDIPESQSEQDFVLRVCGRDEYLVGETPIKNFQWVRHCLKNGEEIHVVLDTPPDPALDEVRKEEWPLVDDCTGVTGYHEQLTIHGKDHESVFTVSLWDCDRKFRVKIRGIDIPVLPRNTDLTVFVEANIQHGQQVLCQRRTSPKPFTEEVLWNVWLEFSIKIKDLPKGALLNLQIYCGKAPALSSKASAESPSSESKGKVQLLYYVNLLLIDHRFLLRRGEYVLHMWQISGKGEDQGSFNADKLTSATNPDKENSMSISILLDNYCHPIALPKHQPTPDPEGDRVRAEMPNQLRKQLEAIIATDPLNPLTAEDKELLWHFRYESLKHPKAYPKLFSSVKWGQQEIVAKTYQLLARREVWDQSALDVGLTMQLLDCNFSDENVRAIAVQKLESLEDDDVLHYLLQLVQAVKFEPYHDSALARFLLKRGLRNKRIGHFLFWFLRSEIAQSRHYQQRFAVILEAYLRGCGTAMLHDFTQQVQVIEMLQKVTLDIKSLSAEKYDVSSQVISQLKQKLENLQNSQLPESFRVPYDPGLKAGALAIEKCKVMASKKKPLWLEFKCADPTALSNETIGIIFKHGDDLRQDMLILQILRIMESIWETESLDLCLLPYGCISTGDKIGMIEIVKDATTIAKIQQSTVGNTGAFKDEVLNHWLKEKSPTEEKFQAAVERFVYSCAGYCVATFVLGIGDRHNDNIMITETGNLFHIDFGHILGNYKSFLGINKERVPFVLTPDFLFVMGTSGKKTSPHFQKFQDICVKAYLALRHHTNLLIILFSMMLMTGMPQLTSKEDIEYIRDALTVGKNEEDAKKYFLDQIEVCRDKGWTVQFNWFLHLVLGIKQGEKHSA
Sequence of PI3K-α (P42336 whole entry, species assumed, canonical isoform): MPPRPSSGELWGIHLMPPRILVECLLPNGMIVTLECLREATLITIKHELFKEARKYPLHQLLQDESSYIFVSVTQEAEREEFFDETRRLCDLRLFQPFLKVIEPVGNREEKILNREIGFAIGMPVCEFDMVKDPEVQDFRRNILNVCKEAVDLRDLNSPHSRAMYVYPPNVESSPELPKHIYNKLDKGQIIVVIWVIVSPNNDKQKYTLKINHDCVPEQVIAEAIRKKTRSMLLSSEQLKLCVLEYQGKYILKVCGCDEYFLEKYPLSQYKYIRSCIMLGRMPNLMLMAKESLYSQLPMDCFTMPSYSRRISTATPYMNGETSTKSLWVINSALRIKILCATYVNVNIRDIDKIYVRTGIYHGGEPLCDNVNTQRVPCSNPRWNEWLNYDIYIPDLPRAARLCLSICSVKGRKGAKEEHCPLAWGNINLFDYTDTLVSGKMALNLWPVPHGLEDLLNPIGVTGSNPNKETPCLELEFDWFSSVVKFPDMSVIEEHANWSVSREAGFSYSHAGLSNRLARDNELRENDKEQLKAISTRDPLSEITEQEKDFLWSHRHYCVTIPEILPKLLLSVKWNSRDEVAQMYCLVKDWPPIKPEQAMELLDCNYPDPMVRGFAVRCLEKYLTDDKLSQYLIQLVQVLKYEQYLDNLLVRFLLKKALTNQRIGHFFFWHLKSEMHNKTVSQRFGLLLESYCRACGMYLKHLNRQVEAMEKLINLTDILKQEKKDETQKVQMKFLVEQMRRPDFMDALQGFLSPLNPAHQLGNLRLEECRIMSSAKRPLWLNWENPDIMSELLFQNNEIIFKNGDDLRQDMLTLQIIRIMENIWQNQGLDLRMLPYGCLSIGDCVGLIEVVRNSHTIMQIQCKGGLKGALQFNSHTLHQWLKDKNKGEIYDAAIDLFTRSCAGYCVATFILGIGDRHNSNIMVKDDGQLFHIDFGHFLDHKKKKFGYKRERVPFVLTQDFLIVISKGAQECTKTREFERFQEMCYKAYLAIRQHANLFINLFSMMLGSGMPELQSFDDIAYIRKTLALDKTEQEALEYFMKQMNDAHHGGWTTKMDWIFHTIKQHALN
Sequence of PI3K-α (P27986 whole entry partner, species assumed, canonical isoform): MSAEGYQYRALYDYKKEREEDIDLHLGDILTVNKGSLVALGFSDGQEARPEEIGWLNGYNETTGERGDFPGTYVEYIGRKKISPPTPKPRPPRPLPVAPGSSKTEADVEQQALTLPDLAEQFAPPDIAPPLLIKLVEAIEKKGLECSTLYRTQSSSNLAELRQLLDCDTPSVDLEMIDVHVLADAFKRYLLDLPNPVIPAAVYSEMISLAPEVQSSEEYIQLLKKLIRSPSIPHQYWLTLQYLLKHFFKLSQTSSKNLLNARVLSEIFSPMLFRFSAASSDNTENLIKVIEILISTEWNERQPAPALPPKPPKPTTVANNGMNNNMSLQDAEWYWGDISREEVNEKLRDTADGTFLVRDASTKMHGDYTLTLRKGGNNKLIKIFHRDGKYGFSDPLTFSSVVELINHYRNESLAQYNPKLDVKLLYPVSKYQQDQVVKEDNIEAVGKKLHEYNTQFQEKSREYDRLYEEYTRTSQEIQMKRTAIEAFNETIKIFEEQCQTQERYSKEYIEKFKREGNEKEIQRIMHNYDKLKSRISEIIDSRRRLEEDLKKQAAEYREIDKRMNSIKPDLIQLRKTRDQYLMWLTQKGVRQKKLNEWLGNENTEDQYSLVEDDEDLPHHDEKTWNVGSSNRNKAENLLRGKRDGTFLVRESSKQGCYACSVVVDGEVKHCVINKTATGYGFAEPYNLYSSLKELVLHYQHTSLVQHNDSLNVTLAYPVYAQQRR
Sequence of PI3K-δ (O00329 whole entry, species assumed): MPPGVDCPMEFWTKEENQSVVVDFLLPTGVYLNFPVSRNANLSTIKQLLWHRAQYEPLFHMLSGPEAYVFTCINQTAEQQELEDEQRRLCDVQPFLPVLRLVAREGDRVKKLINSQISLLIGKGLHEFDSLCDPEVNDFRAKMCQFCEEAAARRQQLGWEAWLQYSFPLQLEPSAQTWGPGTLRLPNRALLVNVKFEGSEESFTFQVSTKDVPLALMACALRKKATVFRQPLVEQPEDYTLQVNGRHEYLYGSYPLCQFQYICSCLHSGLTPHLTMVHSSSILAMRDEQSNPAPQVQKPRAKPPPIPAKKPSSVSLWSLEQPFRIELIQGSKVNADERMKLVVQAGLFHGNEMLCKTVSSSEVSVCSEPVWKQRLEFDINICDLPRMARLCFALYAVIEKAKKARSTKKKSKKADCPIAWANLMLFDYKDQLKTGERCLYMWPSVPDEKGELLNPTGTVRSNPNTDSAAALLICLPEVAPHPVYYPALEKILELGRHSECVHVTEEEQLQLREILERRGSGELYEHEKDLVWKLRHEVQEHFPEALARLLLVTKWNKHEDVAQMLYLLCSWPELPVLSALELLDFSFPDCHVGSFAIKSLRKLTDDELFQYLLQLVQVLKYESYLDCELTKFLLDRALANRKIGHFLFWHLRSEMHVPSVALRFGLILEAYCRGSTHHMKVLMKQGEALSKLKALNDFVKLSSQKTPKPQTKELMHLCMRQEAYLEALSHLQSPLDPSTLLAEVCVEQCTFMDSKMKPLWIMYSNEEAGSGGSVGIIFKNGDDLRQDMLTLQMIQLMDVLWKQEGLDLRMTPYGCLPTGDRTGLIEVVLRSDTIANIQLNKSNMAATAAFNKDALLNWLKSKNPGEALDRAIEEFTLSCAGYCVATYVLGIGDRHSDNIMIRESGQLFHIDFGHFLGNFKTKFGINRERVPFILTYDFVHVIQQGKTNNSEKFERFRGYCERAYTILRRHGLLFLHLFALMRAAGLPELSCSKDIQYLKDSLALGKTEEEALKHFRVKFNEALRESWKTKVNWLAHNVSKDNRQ
Sequence of PI3K-δ (P27986 whole entry partner, species assumed): as the sequence (P27986 whole entry partner, species assumed, canonical isoform) above

Compound `Cc1cc(-c2cncc([C@@H](O)C(F)(F)F)c2)nc2c1C(=O)N(c1cnn(CC(F)F)c1)C2(C)C` [Compound 1, (R)-6-(1-(2,2-difluoroethyl)-1H-pyrazol-4-yl)-4,7,7-trimethyl-2-(5-(2,2,2-trifluoro-1-hydroxyethyl)pyridin-3-yl)-6,7-dihydro-5H-pyrrolo[3,4-b]pyridin-5-one] has an IC50 (CYP3A4; CYP3A4, 2.5 μM Midazolam) of 19 µM, an IC50 (CYP3A4; CYP3A4, 50 μM Testosterone) of over 75 µM and a Papp A→B at 1 h, 5 μM ([1]; Caco-2, Caco-2, 5 μM, A > B) of 18 ×10⁻⁶ cm/s. For the same compound, the recovery at 1 h, 5 μM ([1]; Caco-2, Caco-2, 5 μM, A > B) was 87%, the recovery at 1 h, 5 μM ([1]; Caco-2, Caco-2, 5 μM, B > A) was 96% and the efflux ratio at 1 h, 5 μM ([1]; Caco-2, 5 μM) was 1.9. For the same compound, the Papp B→A at 1 h, 5 μM ([1]; Caco-2, 5 μM, B > A) was 60.7 ×10⁻⁶ cm/s, the “Avg. Papp” value (Caco-2) was 3.26e-05 cm/s and the Ki (PI3K-α; PI3Kα) was 280 ± 90 nM. For the same compound, the “Fold Selectivity” value (PI3K-α; PI3Kγ over PI3Kα) was 30 fold, the Ki (PI3K-β; PI3Kβ) was 220 ± 30 nM and the “Fold Selectivity” value (PI3K-β; PI3Kγ over PI3Kβ) was 26 fold. The “Fold Selectivity” value (PI3K-δ; PI3Kγ over PI3Kδ) was 19 fold, the Ki (PI3K-δ; PI3Kδ) was 160 ± 50 nM and the Ki (PI3K-γ; PI3K-gamma, ATP-competitive) was 8 nM. For the same compound, the “selectivity for PI3K-gamma” value (PI3K-γ; against PI3K-alpha, PI3K-beta and PI3K-delta isoforms) was “greater than 15 fold”, the “substrate of efflux transporters” value (human P-gp (MDR)) was “P-gp substrate” and the DN_AUCINF [2, 4] was 3.1 µg·h/mL. For the same compound, the F ([2]; Dog, 3 mg/kg nominal, spray-dried dispersion, 3 mg/kg) was 77%, the DN_AUCINF [2, 5] was 2.5 µg·h/mL and the DN_AUCINF [2, 6] was 2.76 µg·h/mL. The F ([2]; Mouse, 1 mg/kg nominal, 0.2% MC/1% SLS, 1 mg/kg) was 81%, the AUC [2, 4] was 9110 ng·h/mL and the AUC(0-inf) [2, 4] was 9290 ng·h/mL. The Cmax [2, 4] was 1290 ng/mL, the MRT [2, 4] was 9 h and the Tmax [2, 4] was 0.83 h. It also gave a half-life [2, 4] of 438 min, an AUC [2, 5] of 12300 ng·h/mL and an AUC(0-inf) [2, 5] of 12500 ng·h/mL. It also gave a Cmax [2, 5] of 1350 ng/mL, an MRT [2, 5] of 10.5 h and a Tmax [2, 5] of 1.67 h. The half-life [2, 5] was 510 min, the AUC [2, 6] was 2720 ng·h/mL and the AUC(0-inf) [2, 6] was 2760 ng·h/mL. For the same compound, the Cmax [2, 6] was 290 ng/mL, the MRT [2, 6] was 5.8 h and the Tmax [2, 6] was 2 h. For the same compound, the half-life [2, 6] was 228 min, the “% HBF (hepatic blood flow)” value [3, 7] was about 3.6% and the DN_AUCINF [3, 7] was 6.2 µg·h/mL. It also gave an AUC(0-inf) [3, 8] of 3100 ng·h/mL, a half-life [3, 8] of 492 min and a clearance ([3]; plasma, Rat, single IV bolus, 0.5 mg/kg nominal, read-out: CL) of 2.8 mL/min/kg. For the same compound, the Vd ([3]; plasma, Rat, single IV bolus, 0.5 mg/kg nominal, read-out: Vss) was 1.8 L/kg, the AUC ([3]; plasma, Intravenous bolus, 0.5 mg/kg nominal dose, read-out: Rat IV AUC) was 3100 ng·h/mL and the AUC ([3]; plasma, Rat, single IV bolus, 0.5 mg/kg nominal, read-out: AUCALL) was 2690 ng·h/mL.
